Source: PubChem BioAssay AID1963828 (Molecular Pharmacology Branch, DTP, NCI, 2024)

System: 991263-137-R1-J2-PDC complex spheroid viability
Assay: Anticancer human tumor 991263-137-R1-J2-PDC patient-derived colon adenocarcinoma cell line growth inhibition [POLQ]
Conditions: for IC50: curve of first compound; for viability, T/C: stronger effect = lower value
How it was run: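 Complex spheroid viability model combining PDC tumour cells with endothelial (HUVEC) and MSC stromal cells. Novobiocin, ART-558 or RP6685 were tested singly and in combination with standard and investigational anticancer drugs. Each was titrated in half-log steps from near clinical Cmax, or from 10 microM where Cmax was unknown.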

[1] = second compound 0.0316 µM, first compound 0.0316 µM
[2] = second compound 0.0316 µM, first compound 0.1 µM
[3] = second compound 0.0316 µM, first compound 0.316 µM
[4] = second compound 0.0316 µM, first compound 1 µM
[5] = second compound 0.0316 µM, first compound 3.16 µM
[6] = second compound 0.0316 µM, first compound 10 µM
[7] = second compound 0.1 µM, first compound 0.0316 µM
[8] = second compound 0.1 µM, first compound 0.1 µM
[9] = second compound 0.1 µM, first compound 0.316 µM
[10] = second compound 0.1 µM, first compound 1 µM
[11] = second compound 0.1 µM, first compound 3.16 µM
[12] = second compound 0.1 µM, first compound 10 µM
[13] = second compound 0.316 µM, first compound 0.0316 µM
[14] = second compound 0.316 µM, first compound 0.1 µM
[15] = second compound 0.316 µM, first compound 0.316 µM
[16] = second compound 0.316 µM, first compound 1 µM
[17] = second compound 0.316 µM, first compound 3.16 µM
[18] = second compound 0.316 µM, first compound 10 µM
[19] = second compound 1 µM, first compound 0.0316 µM
[20] = second compound 1 µM, first compound 0.1 µM
[21] = second compound 1 µM, first compound 0.316 µM
[22] = second compound 1 µM, first compound 1 µM
[23] = second compound 1 µM, first compound 3.16 µM
[24] = second compound 1 µM, first compound 10 µM
[25] = second compound 3.16 µM, first compound 0.0316 µM
[26] = second compound 3.16 µM, first compound 0.1 µM
[27] = second compound 3.16 µM, first compound 0.316 µM
[28] = second compound 3.16 µM, first compound 1 µM
[29] = second compound 3.16 µM, first compound 3.16 µM
[30] = second compound 3.16 µM, first compound 10 µM
[31] = second compound 10 µM, first compound 0.0316 µM
[32] = second compound 10 µM, first compound 0.1 µM
[33] = second compound 10 µM, first compound 0.316 µM
[34] = second compound 10 µM, first compound 1 µM
[35] = second compound 10 µM, first compound 3.16 µM
[36] = second compound 10 µM, first compound 10 µM
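Note: spheroids exposed to compounds for 7 days before readout.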
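Throughout, for viability, T/C: 100% = DMSO vehicle control viability.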

CC1COCCN1c1cc(C2(O)CC3CCC(C2)O3)c2cnn(-c3ccn[nH]3)c2n1 (stereo unspecified) + Cc1cccc(N(C)C(=O)C2C(O)CCN2c2nc(C)cc(C(F)(F)F)c2C#N)c1
IC50 (second compound 0.0316 µM): 1.24 µM | IC50 (second compound 0.1 µM): 2.18 µM | IC50 (second compound 0.316 µM): 1.64 µM | IC50 (second compound 1 µM): 3.12 µM | IC50 (second compound 3.16 µM): 2.57 µM | IC50 (second compound 10 µM): 0.959 µM | viability, T/C [1]: 107% | viability, T/C [2]: 84.8% | viability, T/C [3]: 67.5% | viability, T/C [4]: 55.8% | viability, T/C [5]: 35.8% | viability, T/C [6]: 30.1% | viability, T/C [7]: 110% | viability, T/C [8]: 103% | viability, T/C [9]: 82.3% | viability, T/C [10]: 61.1% | viability, T/C [11]: 46.4% | viability, T/C [12]: 29.2% | viability, T/C [13]: 107% | viability, T/C [14]: 110% | viability, T/C [15]: 75.9% | viability, T/C [16]: 59.2% | viability, T/C [17]: 42.5% | viability, T/C [18]: 28.3% | viability, T/C [19]: 92% | viability, T/C [20]: 98.2% | viability, T/C [21]: 87.1% | viability, T/C [22]: 67.4% | viability, T/C [23]: 52.5% | viability, T/C [24]: 28.6% | viability, T/C [25]: 93.4% | viability, T/C [26]: 85.5% | viability, T/C [27]: 74.4% | viability, T/C [28]: 61.6% | viability, T/C [29]: 47.4% | viability, T/C [30]: 34.6% | viability, T/C [31]: 90.9% | viability, T/C [32]: 98.8% | viability, T/C [33]: 75.2% | viability, T/C [34]: 48.2% | viability, T/C [35]: 37.7% | viability, T/C [36]: 25.9%

CC(=O)O[C@H]1C(=O)[C@@]2(C)[C@H]([C@H](OC(=O)c3ccccc3)[C@]3(O)C[C@H](OC(=O)[C@H](O)[C@@H](NC(=O)c4ccccc4)c4ccccc4)C(C)=C1C3(C)C)[C@]1(OC(C)=O)CO[C@@H]1C[C@@H]2O + Nc1ccc(C#CCN(C(=O)Cc2ncc(C(F)(F)F)cc2C(F)(F)F)c2ccc(F)cc2)nn1
IC50 (second compound 0.0316 µM): > 3 µM | IC50 (second compound 0.1 µM): > 3 µM | IC50 (second compound 0.316 µM): 2.53 µM | IC50 (second compound 1 µM): > 3 µM | IC50 (second compound 3.16 µM): > 3 µM | IC50 (second compound 10 µM): > 3 µM | viability, T/C (second compound 0.0316 µM, first compound 0.00949 µM): 98.6% | viability, T/C (second compound 0.0316 µM, first compound 0.03 µM): 89.7% | viability, T/C (second compound 0.0316 µM, first compound 0.0949 µM): 84.9% | viability, T/C (second compound 0.0316 µM, first compound 0.3 µM): 77.8% | viability, T/C (second compound 0.0316 µM, first compound 0.949 µM): 55.3% | viability, T/C (second compound 0.0316 µM, first compound 3 µM): 56.6% | viability, T/C (second compound 0.1 µM, first compound 0.00949 µM): 93.9% | viability, T/C (second compound 0.1 µM, first compound 0.03 µM): 96.5% | viability, T/C (second compound 0.1 µM, first compound 0.0949 µM): 87.9% | viability, T/C (second compound 0.1 µM, first compound 0.3 µM): 85.8% | viability, T/C (second compound 0.1 µM, first compound 0.949 µM): 55.1% | viability, T/C (second compound 0.1 µM, first compound 3 µM): 50.9% | viability, T/C (second compound 0.316 µM, first compound 0.00949 µM): 93.9% | viability, T/C (second compound 0.316 µM, first compound 0.03 µM): 95.6% | viability, T/C (second compound 0.316 µM, first compound 0.0949 µM): 85.3% | viability, T/C (second compound 0.316 µM, first compound 0.3 µM): 80% | viability, T/C (second compound 0.316 µM, first compound 0.949 µM): 58% | viability, T/C (second compound 0.316 µM, first compound 3 µM): 48.9% | viability, T/C (second compound 1 µM, first compound 0.00949 µM): 92.5% | viability, T/C (second compound 1 µM, first compound 0.03 µM): 96.9% | viability, T/C (second compound 1 µM, first compound 0.0949 µM): 98% | viability, T/C (second compound 1 µM, first compound 0.3 µM): 66.4% | viability, T/C (second compound 1 µM, first compound 0.949 µM): 57.7% | viability, T/C (second compound 1 µM, first compound 3 µM): 51.7% | viability, T/C (second compound 3.16 µM, first compound 0.00949 µM): 90.2% | viability, T/C (second compound 3.16 µM, first compound 0.03 µM): 87.1% | viability, T/C (second compound 3.16 µM, first compound 0.0949 µM): 68.7% | viability, T/C (second compound 3.16 µM, first compound 0.3 µM): 60.6% | viability, T/C (second compound 3.16 µM, first compound 0.949 µM): 51.4% | viability, T/C (second compound 3.16 µM, first compound 3 µM): 50.6% | viability, T/C (second compound 10 µM, first compound 0.00949 µM): 84.6% | viability, T/C (second compound 10 µM, first compound 0.03 µM): 72% | viability, T/C (second compound 10 µM, first compound 0.0949 µM): 53.8% | viability, T/C (second compound 10 µM, first compound 0.3 µM): 58.1% | viability, T/C (second compound 10 µM, first compound 0.949 µM): 49.5% | viability, T/C (second compound 10 µM, first compound 3 µM): 50.2%

COc1cc(C2c3cc4c(cc3C(OC3OC5COC(C)OC5C(O)C3O)C3COC(=O)C23)OCO4)cc(OC)c1O (stereo unspecified) + Nc1ccc(C#CCN(C(=O)Cc2ncc(C(F)(F)F)cc2C(F)(F)F)c2ccc(F)cc2)nn1
IC50 (second compound 0.0316 µM): > 10 µM | IC50 (second compound 0.1 µM): > 10 µM | IC50 (second compound 0.316 µM): > 10 µM | IC50 (second compound 1 µM): > 10 µM | IC50 (second compound 3.16 µM): > 10 µM | IC50 (second compound 10 µM): > 10 µM | viability, T/C [1]: 106% | viability, T/C [2]: 94.4% | viability, T/C [3]: 108% | viability, T/C [4]: 94.4% | viability, T/C [5]: 93.2% | viability, T/C [6]: 74.4% | viability, T/C [7]: 115% | viability, T/C [8]: 99.8% | viability, T/C [9]: 102% | viability, T/C [10]: 98.9% | viability, T/C [11]: 91% | viability, T/C [12]: 74.5% | viability, T/C [13]: 97.9% | viability, T/C [14]: 122% | viability, T/C [15]: 107% | viability, T/C [16]: 92.4% | viability, T/C [17]: 93.5% | viability, T/C [18]: 72.2% | viability, T/C [19]: 100% | viability, T/C [20]: 104% | viability, T/C [21]: 97.8% | viability, T/C [22]: 96.4% | viability, T/C [23]: 99.9% | viability, T/C [24]: 74.9% | viability, T/C [25]: 96.3% | viability, T/C [26]: 96.8% | viability, T/C [27]: 103% | viability, T/C [28]: 86.7% | viability, T/C [29]: 72.1% | viability, T/C [30]: 66.1% | viability, T/C [31]: 89.6% | viability, T/C [32]: 96.1% | viability, T/C [33]: 88.7% | viability, T/C [34]: 68.8% | viability, T/C [35]: 70.9% | viability, T/C [36]: 61.5%
